Measurements taken from PubChem BioAssay (NCI).
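These data come from cells grown in 96-well plates and exposed to compound for 48 hours at five concentrations. The concentration for full growth arrest is given as TGI.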

How the values were obtained:
Experiment in all cases: NCI-60 cell line screen, 48 h
[1] = tested on: LOX IMVI melanoma
[2] = tested on: OVCAR-3 ovarian
[3] = tested on: SK-OV-3 ovarian
[4] = tested on: UO-31 renal
[5] = tested on: A498 renal
[6] = tested on: UACC-257 melanoma
[7] = tested on: OVCAR-4 ovarian
[8] = tested on: NCI-H226 lung
[9] = tested on: HOP-62 NSCLC
[10] = tested on: SK-MEL-28 melanoma
[11] = tested on: 786-0 renal
[12] = tested on: HCT-15 colon
[13] = tested on: M14 melanoma
[14] = tested on: HCT-116 colon
[15] = tested on: EKVX NSCLC
[16] = tested on: DU-145 prostate
[17] = tested on: IGROV1 ovarian
[18] = tested on: K-562 leukemia
[19] = tested on: SR leukemia

SMILES	TGI [1] [µM]	TGI [2] [µM]	TGI [3] [µM]	TGI [4] [µM]	TGI [5] [µM]	TGI [6] [µM]	TGI [7] [µM]	TGI [8] [µM]	TGI [9] [µM]	TGI [10] [µM]	TGI [11] [µM]	TGI [12] [µM]	TGI [13] [µM]	TGI [14] [µM]	TGI [15] [µM]	TGI [16] [µM]	TGI [17] [µM]	TGI [18] [µM]	TGI [19] [µM]
Cc1cc2nc3c(C#N)c(-c4ccccc4)cc(Nc4ccc(Cl)cc4)n3c2cc1C	> 100	> 100	> 100	> 100	> 100	> 100	> 100	> 100	> 100	> 100	> 100	> 100	> 100	> 100	> 100	–	–	–	–
COc1cc(Nc2cnc3cc(F)c(F)cc3n2)cc(OC)c1OC	> 100	> 100	> 100	> 100	> 100	> 100	> 100	> 100	> 100	> 100	> 100	> 100	> 100	> 100	> 100	> 100	> 100	–	–
CC(=O)Nc1cc(C(=O)Nc2cc(C(=O)N3CC(CCl)c4c3cc(N)c3ccccc43)nn2C)nn1C (centres undefined)	1.07	2.61	5.96	1.35	< 0.0197	2.09	0.677	–	> 100	0.154	0.332	3.22	2.07	0.412	1.15	0.018	0.851	0.823	–
CCSc1n/c(=C\c2ccco2)c2nnnn12	> 100	> 100	> 100	> 100	> 100	> 100	> 100	> 100	> 100	> 100	> 100	> 100	> 100	> 100	> 100	> 100	> 100	–	–
Cc1cc(N(CCC#N)CCC#N)ccc1/C(N=Nc1ccc([N+](=O)[O-])cc1)=N\NC(=O)c1cc(Cl)ccc1C(=O)c1ccccc1	–	> 100	> 100	60.5	–	> 100	95	34.1	> 100	> 100	52.7	37.2	> 100	23.6	28.3	56.8	17.9	> 100	–
CC1CC(N)=Nc2ccccc2N1 (centres undefined)	> 100	> 100	> 100	> 100	–	> 100	> 100	> 100	> 100	> 100	> 100	> 100	> 100	> 100	> 100	> 100	> 100	> 100	–
S=C(NCc1ccccc1)c1nc[nH]c1C(=S)NCc1ccccc1	17.1	18.8	28.5	–	–	23.4	20	8.1	26.2	26.9	18.8	33.6	20.7	17.9	17	21.6	19.8	29.7	–
O=C(NCCCCCCNC(=O)c1cccc2ccccc12)Nc1cccc2ccccc12	> 100	> 100	–	> 100	> 100	> 100	> 100	–	> 100	> 100	> 100	> 100	> 100	> 100	> 100	> 100	> 100	> 100	–
CC(=O)NC1C(OCc2ccccc2)OC(CO)C(O)C1OC(C)C(=O)NC(C)C(=O)NC(CCC(=O)NCCCNc1c2ccccc2nc2cccc([N+](=O)[O-])c12)C(N)=O (centres undefined)	27.7	6.53	34.7	8.3	6.11	4.71	> 100	11.2	8.78	8.04	> 100	7.3	3.97	2.38	22.6	–	72.9	11.1	> 100
CN(c1ccc(Cl)cc1)S(=O)(=O)c1ccc([N+](=O)[O-])cc1	> 100	> 100	> 100	> 100	–	> 100	> 100	> 100	> 100	> 100	> 100	> 100	> 100	> 100	> 100	> 100	> 100	> 100	–
O=S(=O)(c1ccccc1)n1c2cc3cccnc3nc2c2cccnc21	> 100	> 100	> 100	> 100	> 100	> 100	> 100	> 100	> 100	> 100	> 100	> 100	> 100	> 100	> 100	–	> 100	55.3	30.4
